Patent publication US9125922B2, “Phosphate esters of gyrase and topoisomerase inhibitors” (priority 2011, dated 2015)
Like-named read-outs stand apart in the source and are kept apart here.

Assays:
[1] = Aqueous Solubility Study; assay type: physicochemical; conditions: aqueous buffer, thermodynamic from solid; water, pH adjusted with 1.0N HCl, stirred 96 hours at room temperature, filtered, HPLC; filtrate pH per compound (23: >3.0; X: 4.41; Y: 3.01; Z: 4.35)
Procedure: The aqueous solubilities of compounds 23, X, Y, and Z were determined according to the following procedure.
Aqueous samples of each compound were prepared as follows. Compounds were weighed (20-30 mg compound) in 4 ml clear vials prior to adding water (0.5 mL) and stirring by magnetic stirrer. 1.0N HCl was added to the suspension to adjust the pH to the desired range. After stirring for 96 hours at room temperature, the suspension was filtered through a 0.22 micron filter (Millipore, Ultrafree centrifugal filters, Durapore PVDF 0.22 μm, Cat# UFC30GVNB). The filtrate was collected and the pH measured with a pH meter. The filtrates containing compounds X and Z were diluted 100-fold and 400-fold, respectively, to provide an appropriate concentration for HPLC analysis.
Standard solutions of each compound were prepared according to the following procedure. 1 to 2 mg of each compound was accurately weighed into a 10 mL volumetric flask and either water (for compounds X and Z), methanol (for compound Y), or 1:1 methanol:0.1N HCl (for compound 23) was added to completely dissolve the compounds. Sonication was performed for compound 23 to assist with the dissolution in 1:1 methanol:0.1N HCl. When all solids dissolved, additional solvent was added to adjust the volume of each solution to 10 ml. The resulting solutions were thoroughly mixed to give the standard solutions of each compound. Each standard solution was then diluted with solvent by 2-fold, 10-fold, and 100-fold.
Aliquots of each sample and each standard solution were analyzed by HPLC analysis (Agilent 1100, injection volume 10 μL, wavelength 271 nm, column XTerra® Phenyl 5 μm, 4.6×50 mm, Part No. 186001144, mobile phase: A: 0.1% TFA in water 0.1% TFA in AcN). Each standard solution was injected three times, and each of the samples was injected twice. Standard curves were obtained by plotting the average of the peak area from the HPLC versus the concentrations of the standard solutions (with appropriate corrections of the weights of the standards based on total water content of the solid as determined by elemental analysis). The concentration of each sample was calculated from the peak area of the aqueous sample from the HPLC results and the slope and intercept of the standard curves. The solubility values listed in Table 3 below were derived from the product of the concentration of the sample and the dilution factor of the sample.

[2] = biological target: S. aureus TopoIV enzyme (Staphylococcus aureus, UniProt P0C1S7); test: DNA Topo IV ATPase Assay; assay type: biochemical
Procedure: The conversion of ATP to ADP by S. aureus TopoIV enzyme was coupled to the conversion of NADH to NAD+, and the progress of the reaction was measured by the change in absorbance at 340 nm. TopoIV (64 nM) was incubated with the selected compound (3% DMSO final) in buffer for 10 minutes at 30° C. The buffer consisted of 100 mM Tris 7.5, 1.5 mM MgCl2, 200 mM K·Glutamate, 2.5 mM phosphoenol pyruvate, 0.2 mM NADH, 1 mM DTT, 5 μg/mL linearized DNA, 50 μg/mL BSA, 30 μg/mL pyruvate kinase, and 10 μg/mL lactate dehyrodgenase (LDH). The reaction was initiated with ATP, and rates were monitored continuously for 20 minutes at 30° C. on a Molecular Devices SpectraMAX plate reader. The inhibition constant, Ki, was determined from plots of rate vs. concentration of selected compound fit to the Morrison Equation for tight binding inhibitors.

[3] = biological target: S. aureus DNA gyrase (Staphylococcus aureus, UniProt P0A0K8); test: DNA Gyrase ATPase Assay; assay type: biochemical; conditions: coupled ATPase assay, 30° C., 90 nM enzyme, 0.9 mM ATP; read-out: Ki, Inhibition of S. aureus DNA Gyrase
Procedure: The ATP hydrolysis activity of S. aureus DNA gyrase was measured by coupling the production of ADP through pyruvate kinase/lactate dehydrogenase to the oxidation of NADH. This method has been described previously (Tamura and Gellert, 1990, J. Biol. Chem., 265, 21342).
ATPase assays were carried out at 30° C. in buffered solutions containing 100 mM TRIS pH 7.6, 1.5 mM MgCl2, 150 mM KCl. The coupling system contains final concentrations of 2.5 mM phosphoenol pyruvate, 200 μM nicotinamide adenine dinucleotide (NADH), 1 mM DTT, 30 ug/ml pyruvate kinase, and 10 ug/ml lactate dehydrogenase. The enzyme (90 nM final concentration) and a DMSO solution (3% final concentration) of the selected compound were added. The reaction mixture was allowed to incubate for 10 minutes at 30° C. The reaction was initiated by the addition of ATP to a final concentration of 0.9 mM, and the rate of NADH disappearance was monitored at 340 nanometers over the course of 10 minutes. The Ki values were determined from rate versus concentration profiles.

[4] = coupled ATPase assay, 30° C., 64 nM TopoIV, Morrison Equation fit, read-out: Ki, Inhibition of S. aureus DNA Topo IV

S. aureus TopoIV enzyme, sequence (P0C1S7 whole entry): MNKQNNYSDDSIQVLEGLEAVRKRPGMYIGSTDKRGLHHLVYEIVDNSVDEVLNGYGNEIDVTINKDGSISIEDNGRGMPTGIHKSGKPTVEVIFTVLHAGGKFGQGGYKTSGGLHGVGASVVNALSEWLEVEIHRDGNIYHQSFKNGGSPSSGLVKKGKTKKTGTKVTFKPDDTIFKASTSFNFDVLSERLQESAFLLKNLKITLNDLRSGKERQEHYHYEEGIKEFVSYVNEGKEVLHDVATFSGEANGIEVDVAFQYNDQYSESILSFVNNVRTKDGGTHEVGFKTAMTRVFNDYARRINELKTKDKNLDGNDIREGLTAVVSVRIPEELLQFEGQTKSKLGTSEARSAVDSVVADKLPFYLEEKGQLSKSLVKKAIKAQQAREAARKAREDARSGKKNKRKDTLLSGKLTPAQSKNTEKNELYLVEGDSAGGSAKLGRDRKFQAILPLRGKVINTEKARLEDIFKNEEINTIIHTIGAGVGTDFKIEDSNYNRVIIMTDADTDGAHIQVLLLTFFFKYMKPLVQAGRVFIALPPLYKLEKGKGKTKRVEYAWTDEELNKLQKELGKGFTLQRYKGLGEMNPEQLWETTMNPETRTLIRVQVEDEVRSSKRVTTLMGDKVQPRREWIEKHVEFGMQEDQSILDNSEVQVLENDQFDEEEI
S. aureus TopoIV enzyme, sequence (P0C1U9 whole entry partner): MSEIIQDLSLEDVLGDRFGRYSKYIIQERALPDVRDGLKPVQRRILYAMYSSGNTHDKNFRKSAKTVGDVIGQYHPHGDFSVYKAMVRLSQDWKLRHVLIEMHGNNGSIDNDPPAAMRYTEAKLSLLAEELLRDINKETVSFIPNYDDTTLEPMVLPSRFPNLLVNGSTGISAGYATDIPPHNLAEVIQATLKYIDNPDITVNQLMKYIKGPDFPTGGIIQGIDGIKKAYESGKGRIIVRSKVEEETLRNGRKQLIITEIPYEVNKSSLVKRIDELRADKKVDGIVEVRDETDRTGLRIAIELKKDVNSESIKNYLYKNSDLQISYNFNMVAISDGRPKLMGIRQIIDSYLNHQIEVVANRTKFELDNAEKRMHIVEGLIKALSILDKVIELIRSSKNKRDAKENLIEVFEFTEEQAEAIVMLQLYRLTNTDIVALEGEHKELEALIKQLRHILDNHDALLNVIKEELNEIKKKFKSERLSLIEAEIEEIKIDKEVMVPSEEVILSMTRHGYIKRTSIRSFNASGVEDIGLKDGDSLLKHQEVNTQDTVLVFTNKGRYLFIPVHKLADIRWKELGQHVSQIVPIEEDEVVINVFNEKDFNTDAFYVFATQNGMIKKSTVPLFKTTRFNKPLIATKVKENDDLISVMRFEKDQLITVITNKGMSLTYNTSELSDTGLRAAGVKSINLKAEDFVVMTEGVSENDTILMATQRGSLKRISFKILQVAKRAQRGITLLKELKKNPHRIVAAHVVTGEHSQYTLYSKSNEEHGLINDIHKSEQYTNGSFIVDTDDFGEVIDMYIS
S. aureus DNA gyrase, sequence (P0A0K8 whole entry): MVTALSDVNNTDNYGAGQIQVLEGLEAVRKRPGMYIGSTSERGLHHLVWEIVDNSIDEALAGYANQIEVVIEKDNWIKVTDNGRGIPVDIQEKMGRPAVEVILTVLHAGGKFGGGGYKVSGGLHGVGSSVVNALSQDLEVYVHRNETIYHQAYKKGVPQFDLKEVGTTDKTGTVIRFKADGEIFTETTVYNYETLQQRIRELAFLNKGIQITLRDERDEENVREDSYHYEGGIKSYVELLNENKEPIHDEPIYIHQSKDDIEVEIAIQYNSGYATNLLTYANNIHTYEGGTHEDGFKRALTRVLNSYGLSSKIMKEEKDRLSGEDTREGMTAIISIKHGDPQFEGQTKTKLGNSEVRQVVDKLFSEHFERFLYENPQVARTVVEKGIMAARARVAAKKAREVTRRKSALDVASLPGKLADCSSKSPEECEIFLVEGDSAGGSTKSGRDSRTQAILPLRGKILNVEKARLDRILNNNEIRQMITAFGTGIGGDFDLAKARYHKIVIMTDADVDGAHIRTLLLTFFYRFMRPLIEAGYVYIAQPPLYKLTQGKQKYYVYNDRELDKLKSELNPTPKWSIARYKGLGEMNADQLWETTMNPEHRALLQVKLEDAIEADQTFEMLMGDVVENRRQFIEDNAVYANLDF
S. aureus DNA gyrase, sequence (P20831 whole entry partner): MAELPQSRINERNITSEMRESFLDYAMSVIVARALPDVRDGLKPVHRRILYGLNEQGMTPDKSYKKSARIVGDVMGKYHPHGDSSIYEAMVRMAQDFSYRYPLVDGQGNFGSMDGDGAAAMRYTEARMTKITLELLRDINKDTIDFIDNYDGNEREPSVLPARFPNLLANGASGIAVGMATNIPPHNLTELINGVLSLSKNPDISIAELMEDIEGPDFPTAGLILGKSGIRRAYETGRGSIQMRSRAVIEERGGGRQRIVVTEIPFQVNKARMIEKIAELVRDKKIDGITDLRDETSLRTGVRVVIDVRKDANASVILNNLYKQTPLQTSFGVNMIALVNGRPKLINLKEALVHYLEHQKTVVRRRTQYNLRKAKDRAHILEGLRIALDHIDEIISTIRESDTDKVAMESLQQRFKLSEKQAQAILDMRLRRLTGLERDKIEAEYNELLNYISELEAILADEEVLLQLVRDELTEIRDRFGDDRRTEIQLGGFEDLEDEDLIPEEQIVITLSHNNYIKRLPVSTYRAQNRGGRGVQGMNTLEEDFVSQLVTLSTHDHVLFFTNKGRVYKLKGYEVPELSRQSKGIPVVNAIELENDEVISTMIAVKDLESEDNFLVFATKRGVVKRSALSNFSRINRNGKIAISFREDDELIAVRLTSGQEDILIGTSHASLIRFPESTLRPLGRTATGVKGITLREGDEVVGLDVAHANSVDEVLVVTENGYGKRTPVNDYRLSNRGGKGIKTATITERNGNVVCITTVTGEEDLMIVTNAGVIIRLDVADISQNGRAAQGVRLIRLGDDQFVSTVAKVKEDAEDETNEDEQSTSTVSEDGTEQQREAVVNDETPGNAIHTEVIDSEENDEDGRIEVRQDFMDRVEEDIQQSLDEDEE

SMILES	solubility at 96 h [1] [mg/mL]	Ki [2] [nM]	Ki [3] [nM]	Ki [2, 4] [nM]
CCNC(=O)Nc1nc2cc(-c3cnc(C(C)(C)O)nc3)c(F)c([C@H]3CCCO3)c2[nH]1 [Compound 23, (R)-1-ethyl-3-(6-fluoro-5-(2-(2-hydroxypropan-2-yl)pyrimidin-5-yl)-7-(tetrahydrofuran-2-yl)-1H-benzo[d]imidazol-2-yl)urea]	< 0.001	9		
CCNC(=O)Nc1nc2cc(-c3cnc(C(C)(C)OP(=O)(O)OCCOCCOC)nc3)c(F)c([C@H]3CCCO3)c2[nH]1 [Compound X, ammonium (R)-2-(5-(2-(3-ethylureido)-6-fluoro-7-(tetrahydrofuran-2-yl)-1H-benzo[d]imidazol-5-yl)pyrimidin-2-yl)propan-2-yl 2-(2-methoxyethoxy)ethyl phosphate]	12.7		< 9	45
CCCCCCCCCCCCCCCCOP(=O)(O)OC(C)(C)c1ncc(-c2cc3nc(NC(=O)NCC)[nH]c3c([C@H]3CCCO3)c2F)cn1 [Compound Y, ammonium (R)-2-(5-(2-(3-ethylureido)-6-fluoro-7-(tetrahydrofuran-2-yl)-1H-benzo[d]imidazol-5-yl)pyrimidin-2-yl)propan-2-yl hexadecyl phosphate]	< 0.001		13	24
CCNC(=O)Nc1nc2cc(-c3cnc(C(C)(C)OP(=O)(O)OCCN4CCOCC4)nc3)c(F)c([C@H]3CCCO3)c2[nH]1 [Compound Z, 2-(5-(2-(3-ethylureido)-6-fluoro-7-((R)-tetrahydrofuran-2-yl)-1H-benzo[d]imidazol-5-yl)pyrimidin-2-yl)propan-2-yl 2-morpholinoethyl hydrogen phosphate]	> 41		< 9	80
